Experimental data as given in patent publication US20260107941A1.
≈ marks a conversion by molar mass, not a printed value. Where “and” joins values, the source holds several entries; their conditions need not be identical. Identical values can stand only once.

Tests used:
[1] = system: Rhizoctonia solani; assay: Pot method, control effect on Rhizoctonia solani in cotton seedlings; assay type: in vivo; details: 50 mL applied on 1 d, 3 d, 5 d, 7 d, after 10 d
Protocol: A Rhizoctonia solani suspension (10^7 CFU/mL) was added to a matrix at a ratio of 20:1 (w/w), mixed well, germinated cotton seeds were sown into the matrix, and then 50 mL of the medicinal solution was applied on 1 d, 3 d, 5 d, and 7 d separately. After culturing for 10 d, the incidence rate was investigated and the control effect was calculated.

[2] = system: Fusarium oxysporum; assay: Mycelial growth rate method, toxicity to Fusarium oxysporum; assay type: cell-based; details: F. oxysporum, mycelial growth on drug-containing PDA plate, 28° C., 3 d to 7 d
Protocol: (§1) A PDA solid medium was heated, melted, shaken, and cooled to about 45° C.; a medicinal solution (filtered with a 0.22 μm sterile filter) and the PDA solid medium were mixed, cooled to obtain a drug-containing medium plate with a certain concentration; a phytopathogen cake was placed in the center of the plate, and cultured at 28° C. for 3 d to 7 d; when the hyphae of the phytopathogen in the control group were about to fill the dish, a colony diameter was measured using a cross method, and the mycelial growth inhibition rate and toxicity were calculated. [formula]

[3] = system: Pseudomonas syringae pv. lachrymans; assay: microbe, parasite or virus in culture; assay type: cell-based; details: P. syringae pv. lachrymans
[4] = system: Acidovorax citrulli; assay: Turbidity method, toxicity to Acidovorax citrulli; assay type: cell-based; details: Paracidovorax citrulli; A. citrulli; turbidity in NB medium, shaking culture 30° C., 2 d to 3 d
[5] = system: Erwinia amylovory; assay: Turbidity method, toxicity to Erwinia amylovory; assay type: cell-based; details: E. amylovory, turbidity in NB medium, shaking culture 30° C., 2 d to 3 d
[6] = system: Cladosporium fulvum; assay: Mycelial growth rate method, toxicity to Cladosporium fulvum; assay type: cell-based; details: Fulvia fulva; C. fulvum; mycelial growth on drug-containing PDA plate, 28° C., 3 d to 7 d
Protocol: as §1

[7] = system: Rhizoctonia solani; assay: Mycelial growth rate method, toxicity to Rhizoctonia solani; assay type: cell-based; details: R. solani, mycelial growth on drug-containing PDA plate, 28° C., 3 d to 7 d
Protocol: as §1

[8] = system: Colletotrichum orbiculare; assay: Mycelial growth rate method, toxicity to Colletotrichum orbiculare; assay type: cell-based; details: C. orbiculare, mycelial growth on drug-containing PDA plate, 28° C., 3 d to 7 d
Protocol: as §1

[9] = system: pear fire blight; assay: Field test, control effect on pear fire blight in fragrant pear orchards; details: 3 L sprayed per pear tree, 3 times at 7 d/time
[10] = system: Xanthomonas oryzae; assay: microbe, parasite or virus in culture; assay type: cell-based
[11] = system: Alternaria alternata; assay: Mycelial growth rate method, toxicity to Alternaria alternata; assay type: cell-based; details: A. alternata, mycelial growth on drug-containing PDA plate, 28° C., 3 d to 7 d
Protocol: as §1

Q: Which results are given for `CCN(CC)c1ccc(C=O)c(O)c1`?
A: Control effect (%) ([1]; 50 mg/L): 60.66% and 60.66c %; Incidence (%) ([1]; 50 mg/L): 20.00%; Control effect (%) ([1]; 100 mg/L): 77.05% and 77.05b %; Incidence (%) ([1]; 100 mg/L): 11.67%; Control effect (%) ([1]; 150 mg/L): 86.89% and 86.89a %; Incidence (%) ([1]; 150 mg/L): 6.67%; EC50 [2]: 40.8 µg/mL (≈ 211 µM); EC50 [3]: 114 µg/mL (≈ 592 µM); EC50 [4]: 108 µg/mL (≈ 561 µM); EC50 [5]: 92.1 µg/mL (≈ 477 µM); EC50 [6]: 113 µg/mL (≈ 583 µM); EC50 [7]: 14.5 µg/mL (≈ 75 µM); EC50 [8]: 93.8 µg/mL (≈ 485 µM); Control effect (%) 7 d after last dose ([9]; 200 mg/L): 40.85c %; Control effect (%) 14 d after last dose ([9]; 200 mg/L): 35.14c %; Control effect (%) 7 d after last dose ([9]; 300 mg/L): 50.37% and 50.37b %; Control effect (%) 14 d after last dose ([9]; 300 mg/L): 44.71% and 44.71b %; Control effect (%) 7 d after last dose ([9]; 400 mg/L): 58.13% and 58.13a %; Control effect (%) 14 d after last dose ([9]; 400 mg/L): 50.81% and 50.81a %; EC50 [10]: 136 µg/mL (≈ 706 µM); EC50 [11]: 200 µg/mL (≈ 1040 µM)

Q: Which results are given for `COC(=O)Nc1nc2ccccc2[nH]1` [carbendazim, reference compound]?
A: Control effect (%) ([1]; 100 mg/L): 49.18d %; Incidence (%) ([1]; 100 mg/L): 25.83%

Q: How did the “Control effect (%) 7 d after last dose” value ([9]; 50 mg/L) turn out when zhongshengmycin [reference compound] was run?
A: Its value is 53.06ab %.

Q: What about the “Control effect (%) 14 d after last dose” value ([9]; 50 mg/L) of the same compound?
A: Its value is 47.36b %.
